Laboratory results as given in patent publication US11034913B2, “Metal working fluid” (Henkel AG & Co. KGaA, priority 2015, dated 2021).
“Also recorded” adds a separate entry of the source.

System: mixed Gram-negative bacteria
Test: Minimum inhibitory concentration testing (biostat candidate screening, Phase 1 and Phase 2; dip slide counts)
Assay type: cell-based
Conditions: for Biostatic efficacy regarding Gram-negative bacteria compared with the DCHA standard: result in words, 3 wt. % amine in metal working fluid; for Differential Value Scores, Average / Differential Value Scores, Round 1 / Differential Value Scores, Round 2 / Differential Value Scores, Round 3: Phase 1, scale 0-6, 3 = matches DCHA standard; for Differential Value Scores, Average: average of Rounds 1-3; for Differential Value Scores, Round 1 / Differential Value Scores, Round 2 / Differential Value Scores, Round 3: log bacterial counts at 24 and 48 h versus DCHA standard, higher = better
[1] = Phase 2, Round 1, dilution 3 %, 24 hours
[2] = Phase 2, Round 1, dilution 3 %, 48 hours
[3] = Phase 2, Round 1, dilution 4 %, 24 hours
[4] = Phase 2, Round 1, dilution 4 %, 48 hours
[5] = Phase 2, Round 1, dilution 5 %, 24 hours
[6] = Phase 2, Round 1, dilution 5 %, 48 hours
[7] = Phase 2, Round 2, dilution 4 %, 24 hours
[8] = Phase 2, Round 2, dilution 4 %, 48 hours
[9] = Phase 2, Round 2, dilution 5 %, 24 hours
[10] = Phase 2, Round 2, dilution 5 %, 48 hours
[11] = Phase 2, Round 2, dilution 6 %, 24 hours
[12] = Phase 2, Round 2, dilution 6 %, 48 hours

Row | Structure (SMILES) | Amount of new Gram-negative bacteria colonies [1] | Amount of new Gram-negative bacteria colonies [2] | Amount of new Gram-negative bacteria colonies [3] | Amount of new Gram-negative bacteria colonies [4] | Amount of new Gram-negative bacteria colonies [5] | Amount of new Gram-negative bacteria colonies [6] | Amount of new Gram-negative bacteria colonies [7] | Amount of new Gram-negative bacteria colonies [8] | Amount of new Gram-negative bacteria colonies [9] | Amount of new Gram-negative bacteria colonies [10] | Amount of new Gram-negative bacteria colonies [11] | Amount of new Gram-negative bacteria colonies [12] | Biostatic efficacy regarding Gram-negative bacteria compared with the DCHA standard | Differential Value Scores, Average | Differential Value Scores, Round 1 | Differential Value Scores, Round 2 | Differential Value Scores, Round 3 | Biostatic efficacy regarding Gram-negative bacteria compared with the DCHA standard (listed as Comparative Example 3)
1 | NC1CCC(CC2CCC(N)CC2)CC1 (stereo not shown) [C11, 4,4′-methylene bis(cyclohexylamine)] | 10^7 | 10^7 | 10^5 | 10^7 | 10^5 | 10^7 | 10^2 | 10^7 | 10^2 | 10^7 | 10^2 | 10^7 | – | – | – | – | – | –
2 | NCCN(CCN)CCN [Example 7, Tris(2-aminoethyl)amine] | – | 10^3 | – | – | – | – | – | 10^2 | – | 10^2 | – | 10^2 | surpassed the DCHA standard | – | – | – | – | –
3 | CCC(N)CCN (stereo not shown) [C10, 1,3-pentanediamine] | 10^7 | 10^7 | 10^5 | 10^7 | 10^3 | 10^7 | 10^2 | 10^7 | 10^2 | 10^7 | 10^2 | 10^7 | – | – | – | – | – | –
4 | CCCCCCCCN [Example 6, Octylamine] | – | – | – | – | – | – | – | – | – | – | – | – | surpassed the DCHA standard; also recorded: better biostatic performance than the DCHA control | – | – | – | – | –
5 | NC1CCCCC1 [C7, Cyclohexylamine] | – | – | – | – | – | – | – | – | – | – | – | – | – | 1.5 | 1 | 2.5 | 1 | –
6 | CCCCCCCN [Example 3, Heptylamine] | – | – | – | – | – | – | – | – | – | – | – | – | better biostatic performance than the DCHA control | 4.2 | 4 | 4 | 4.5 | –
7 | NC1CCCCC1N (stereo not shown) [C3, 1,2-cyclohexanediamine] | – | – | – | – | – | – | – | – | – | – | – | – | – | 2.3 | 2 | 4 | 1 | performed below the DCHA standard
8 | NC1CCC(N)CC1 (stereo not shown) [Example 4, 1,4-cyclohexanediamine] | – | – | – | – | – | – | – | – | – | – | – | – | better biostatic performance than the DCHA standard | 3.7 | 4 | 4.5 | 2.5 | –
9 | CN(C)CCCN(C)CCCN(C)C [C13, N,N,N′,N″,N″-pentamethyl-dipropylenetriamine] | 10^7 | 10^7 | 10^7 | 10^7 | 10^3 | 10^7 | 10^2 | 10^7 | 10^2 | 10^7 | 10^2 | 10^7 | – | – | – | – | – | –
10 | NCC1CCCC(CN)C1 (stereo not shown) [C2, 1,3-bis(aminomethyl)cyclohexane] | – | – | – | – | – | – | – | – | – | – | – | – | – | 2.5 | 2.5 | 4 | 1 | –
11 | CN(C)CCN(C)CCN(C)C [C14, Pentamethyldiethylene triamine] | 10^7 | 10^7 | 10^7 | 10^7 | 10^7 | 10^7 | 10^3 | 10^7 | 10^2 | 10^7 | 10^3 | 10^7 | – | – | – | – | – | –
12 | NCCCCCCN [Comparative Example C1, 1,6-diaminohexane] | – | – | – | – | – | – | – | – | – | – | – | – | – | 2.5 | 2 | 4 | 1.5 | –
13 | CCCCCN [Comparative Example C4, Amylamine] | – | – | – | – | – | – | – | – | – | – | – | – | worse biostatic capabilities than the DCHA control | 1.7 | 1.5 | 2.5 | 1 | –
14 | CCCCC(CC)CN(CC(CC)CCCC)CC(CC)CCCC (stereo not shown) [C9, Tris(2-ethylhexylamine)] | 10^7 | 10^7 | 10^5 | 10^7 | 10^4 | 10^7 | 10^3 | 10^7 | 10^2 | 10^7 | 10^2 | 10^7 | – | – | – | – | – | –
15 | CCCCC(CC)CN (stereo not shown) [Example 2, 2-ethylhexylamine] | – | – | – | – | – | – | – | – | – | – | – | – | – | 4.3 | 4 | 4.5 | 4.5 | –
16 | CC(C)CCCC(C)N (stereo not shown) [Example 1, 1,5-dimethylhexylamine] | – | – | – | – | – | – | – | – | – | – | – | – | – | 4.3 | 4.5 | 4 | 4.5 | –
